Experiment: Solubility in polyvinylphenol/tetramethylammonium hydroxide (TMAH) aqueous solution
Format: physicochemical
Settings: mass ratio of compound to polyvinylphenol in saturated solution; polyvinylphenol in 3% TMAH aqueous solution; visual check, left to stand one day
Description: In a screw-top tube were put 0.36 g of polyvinylphenol (S-2P from Maruzen Petrochemical Co., Ltd.; Mw: 5800) and 10.00 g of a 3% TMAH aqueous solution and heated to dissolve. A 2.00 g portion of the resulting solution was put in another screw-top tube, and a small amount of each of the trifluoromethanesulfonate of each of compound Nos. 1 and 5 and comparative compound No. 1 (intermediate No. 4 obtained in step 1 of Example 1-4) was added thereto and heated. A visual check was made to see whether the compound dissolved. This operation was repeated until saturation. The saturated solution was allowed to stand one day to make sure that no solid precipitated. The mass ratio of each compound to the polyvinylphenol of the saturated solution was taken as a parameter of solubility.

O=C(c1ccc(O)cc1)c1ccc(Sc2ccc([S+](c3ccc(F)cc3)c3ccc(F)cc3)cc2)c(F)c1
Solubility (%): 28%

O=C(c1ccccc1)c1ccc(Sc2ccc([S+](c3ccc(F)cc3)c3ccc(F)cc3)cc2)c(F)c1 [Comp. Compound No. 1, reference compound]
Solubility (%): < 1%

O=C(c1ccccc1)c1ccc(Sc2ccc([S+](c3ccc(O)cc3)c3ccc(O)cc3)cc2)c(F)c1
Solubility (%): 70%
